This note sets out measurements from ChEMBL document CHEMBL1201862, “PubChem BioAssay data set” (2004).

The nature of data set [1]: Trypanosoma cruzi growth suppression in host cells – NIH3T3 host cells, beta-gal luminescence, confirmation (AID 2044).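 Note: intracellular parasites grown in NIH/3T3 mouse fibroblasts as host cells; luminescent beta-galactosidase reporter signal from transgenic T. cruzi replicating inside host cells; inhibitors lower the luminescence signal.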 It is filed as functional, cell-based.
Data set [2] in a line: NIH3T3 cell viability loss – ATP luminescence, mouse fibroblasts, counter-screen, dose response (AID 2010).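 Note: cells exposed to compound for about 90 hours before reading.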 The class given is functional, cell-based.
The subject of data set [3] is Streptococcus sp. 'group A'. The data set can be described thus: Streptococcus pyogenes SK(-)GAS viability under kanamycin – luminescence, BacTiterGlo, confirmation, counter-screen for streptokinase expression inhibitor project, dose response (AID 1900). It is filed as functional, organism-based.
The nature of data set [4]: Luminescence Cell-Based Dose Retest to Confirm Inhibitors of Cancer Stem Cells. [Related pubchem assays (depositor defined):AID2717, AID2721]. Conditions: Homo sapiens. The class given is functional.
For the next data set, the system named is Streptococcus. Nature of the data set: GAS UMAA2166 growth inhibition – luminescence, BacTiterGlo, counter-screen for streptokinase expression inhibitor project, dose response (AID 1915).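 Note: potency for reduction of bacterial viability or growth.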 The class given is functional, organism-based.
Data set [5] addresses T1, Heat shock factor protein 1 (Mus musculus, UniProt P38532).
T1 sequence (P38532 whole entry): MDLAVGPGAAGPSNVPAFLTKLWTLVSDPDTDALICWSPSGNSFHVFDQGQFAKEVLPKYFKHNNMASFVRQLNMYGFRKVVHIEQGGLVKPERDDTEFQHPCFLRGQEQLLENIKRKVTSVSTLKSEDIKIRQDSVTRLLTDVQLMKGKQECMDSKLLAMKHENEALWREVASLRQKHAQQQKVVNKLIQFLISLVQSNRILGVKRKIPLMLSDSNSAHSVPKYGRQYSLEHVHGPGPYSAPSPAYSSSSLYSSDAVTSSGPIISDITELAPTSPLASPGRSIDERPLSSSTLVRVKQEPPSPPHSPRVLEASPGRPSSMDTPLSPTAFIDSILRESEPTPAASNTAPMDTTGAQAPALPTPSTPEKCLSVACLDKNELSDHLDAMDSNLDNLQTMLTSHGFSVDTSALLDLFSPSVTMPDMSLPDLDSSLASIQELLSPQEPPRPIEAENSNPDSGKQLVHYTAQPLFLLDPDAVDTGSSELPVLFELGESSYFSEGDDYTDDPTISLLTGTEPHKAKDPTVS
Nature of the data set: decrease of HSF1-responsive luciferase luminescence – cell-based, NIH3T3, dose retest, confirmation (AID 2382).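 Note: NIH3T3 fibroblasts with HSF1-driven luciferase reporter stressed by proteasome inhibitor MG132; luminescence from HSF1-driven luciferase expression after 8 hours of MG132 stress.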 The class given is functional.

Another data set deals with T2, Streptokinase A (Streptococcus pyogenes serotype M1, UniProt P10520).
T2 sequence (P10520 whole entry): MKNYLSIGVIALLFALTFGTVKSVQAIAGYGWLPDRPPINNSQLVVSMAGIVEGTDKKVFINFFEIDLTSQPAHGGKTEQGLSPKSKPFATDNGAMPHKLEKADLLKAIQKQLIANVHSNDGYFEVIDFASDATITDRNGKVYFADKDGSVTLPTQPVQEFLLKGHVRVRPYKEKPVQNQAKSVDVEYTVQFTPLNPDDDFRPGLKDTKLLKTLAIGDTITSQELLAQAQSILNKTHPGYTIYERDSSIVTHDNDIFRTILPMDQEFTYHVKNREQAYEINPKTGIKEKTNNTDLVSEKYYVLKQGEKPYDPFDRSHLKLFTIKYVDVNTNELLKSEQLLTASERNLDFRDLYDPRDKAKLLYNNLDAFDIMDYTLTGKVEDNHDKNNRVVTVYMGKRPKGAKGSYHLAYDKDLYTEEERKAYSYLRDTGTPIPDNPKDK
The data set can be described thus: viability-normalized secreted streptokinase activity reduction – plasminogen activation absorbance, OD405, dose response (AID 1914).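 Note: secreted streptokinase activity via plasminogen activation per viability signal from cell pellet.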 The class given is functional, Streptococcus pyogenes M1 GAS.

For the next data set, the target named is Cytochrome P450 2C19 (Homo sapiens, UniProt P33261). Nature of the data set: Cytochrome panel assay with activity outcomes. Panel member name: p450-cyp2c19 Compounds with AC50 equal or less than 10 uM are considered active. The class given is functional.
Chain of Cytochrome P450 2C19 (P33261 whole entry): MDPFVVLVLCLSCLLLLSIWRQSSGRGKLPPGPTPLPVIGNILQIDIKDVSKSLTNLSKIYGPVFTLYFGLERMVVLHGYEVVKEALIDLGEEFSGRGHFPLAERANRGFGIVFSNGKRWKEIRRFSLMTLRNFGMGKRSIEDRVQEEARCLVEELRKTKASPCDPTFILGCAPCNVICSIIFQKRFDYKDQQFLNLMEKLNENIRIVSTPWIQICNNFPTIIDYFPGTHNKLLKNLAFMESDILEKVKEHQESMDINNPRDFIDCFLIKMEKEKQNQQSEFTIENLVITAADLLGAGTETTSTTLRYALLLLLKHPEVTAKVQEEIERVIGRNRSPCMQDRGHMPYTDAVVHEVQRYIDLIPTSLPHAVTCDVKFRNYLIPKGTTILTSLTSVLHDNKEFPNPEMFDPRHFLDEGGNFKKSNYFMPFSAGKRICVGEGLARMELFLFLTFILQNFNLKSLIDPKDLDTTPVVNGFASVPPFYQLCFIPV

Structures are written as SMILES. Active and inactive are the calls of the source.

With `CC(C)c1ccccc1OCC(O)CN(CC(O)COc1cccc2ccccc12)C(C)C` (stereo not given), the EC50 in data set [1] was 3.45 µM (active); in data set [2], > 30 µM (not active); in data set [3], 4.05 µM (active); in the data set with Streptococcus, 7.04 µM (active). The AC50 in data set [4] was 2.82 µM (active).
Regarding `O=C(O)c1ccc(Cl)c(S(=O)(=O)N(Cc2ccccc2)c2ccc(F)cc2)c1`, in data set [4], the AC50 was 31.2 µM (active).
In the case of `c1ccc(CCn2nnnc2C(c2cccnc2)N2CCN(c3ccccc3)CC2)cc1` (stereo not given), the EC50 in data set [1] is 0.263 µM (active); in data set [2], 4.77 µM (active).
With `Fc1ccc(CO/N=C/C2=C(Cl)c3ccccc3CC2)cc1`, the EC50 in data set [3] was 6.39 µM (active); in data set [5] it was > 195 µM (not active); in the data set with Streptococcus it was > 150 µM (not active); on Streptokinase A, 13.5 µM (active).
Consider `O=C(Nc1cccc(Cl)c1)Nc1ccccc1-n1ccnc1`, for which the values for the EC50 in data set [1] and in data set [2] were 0.461 µM (active) and > 60 µM (not active), respectively.
Consider `COc1cc(C(=O)N2CCN(C(=O)CC(C)C)CC2)cc(OC)c1OC`, for which the EC50 in data set [5] is 9.31 µM (active).
`CC(C)CCNC(=O)C1CCC(CNS(=O)(=O)c2cccc3nsnc23)CC1` (stereo not given): the EC50 in data set [1] and in data set [2] was > 30 µM (not active) in each case.
As to `CCOC(=O)C1(Cc2ccccc2)CCCN(CCCn2cccn2)C1` (stereo not given), in data set [5], the EC50 was > 195 µM (not active).
Consider `COc1ccc(/C=C/C(=O)c2ccccc2)cc1Cn1nnc2ccccc21`, for which the AC50 in data set [4] was 4.11 µM (active).
Regarding `CCCc1nc2ccccc2c(C(=O)OCC(=O)Nc2ccc(S(=O)(=O)N3CCOCC3)cc2)c1CC`, the EC50 in data set [3] was 18.1 µM (active); with Streptococcus it was 52.8 µM (active); on Streptokinase A it was 26 µM (active). For the same compound, in data set [4], the AC50 was 4.04 µM (active).
Regarding `O=C(NCc1ccco1)C1CCN(S(=O)(=O)c2cccc([N+](=O)[O-])c2)CC1`, the EC50 in data set [5] was > 195 µM (not active).
Still for that read-out and setting: under `CC1C=Cc2ccccc2N1C(=O)c1ccccc1` (stereo not given) stands > 195 µM (not active).
Consider `Cc1ccc2c(c1)C1CN(C)CCC1N2C(=O)c1cccc(S(=O)(=O)N2CC(C)CC(C)C2)c1` (stereo not given), for which the results for the EC50 in data set [1] and in data set [2] were 0.216 µM (active) and > 30 µM (not active), respectively.
With `CCCOc1ccc(Cn2c(=O)oc3ccc(C)cc32)cc1OC`, in data set [5], the concentration giving a half-maximal response (EC50) is listed as > 195 µM (not active).
With `CCC(C)n1c(C)nc2c(c1=O)c1nc3ccccc3nc1n2CCC1=CCCCC1` (stereo not given), the values for the EC50 in data set [1] and in data set [2] were 3.7 µM (active) and > 60 µM (not active), respectively.
On the same counts, the results for `CCc1c(-c2ccccc2)nc2sc3c(c2c1N)CCCC3` are 2.01 µM (active) and > 60 µM (not active).
Regarding `CC(C)Oc1cccc(C(=O)NC(=S)Nc2ccccc2)c1`, the concentration for a half-maximal effect (EC50) in data set [5] was > 195 µM (not active).
Consider `Cc1ccc(S(=O)(=O)N(C)c2ccc(OCc3cccc(C)c3)cc2)cc1`, for which the AC50 in data set [4] is 0.898 µM (active).
Regarding `O=C(OCc1ccc(COC(=O)c2ccc(O)cc2)cc1)c1ccc(O)cc1`, the EC50 in data set [3] was 5.67 µM (active); in the data set with Streptococcus, 8.51 µM (active); on Streptokinase A it was > 150 µM (not active).
As for `C/C(=N\NC(=O)CN1CCN(Cc2ccccc2)CC1)c1cccs1`, the EC50 in data set [5] was > 195 µM (not active).
Same read-out and setting: under `O=C(c1cccc(S(=O)(=O)N2CCOCC2)c1)N(Cc1nnc(-c2ccccc2Cl)o1)C1CC1` stands > 195 µM (not active).
For the compound `C[C@@]12CC[C@H](O)C[C@@H]1CC[C@H]1[C@@H]2C[C@@H](O)[C@]2(C)[C@@H](C3=CC(=O)OC3)CC[C@]12O`, the AC50 result at Cytochrome P450 2C19 is listed as “inconclusive”.
On to `Cc1ccc2nc3c(cc(S(=O)(=O)c4ccccc4)c(=N)n3Cc3ccco3)c(=O)n2c1`, for which the EC50 in data set [1] is 3 µM (active); in data set [2] it was > 60 µM (not active).
As for `COc1ccc(CNC(=O)CCCNC(=O)c2ccc(Cl)cc2)cc1OC`, in data set [5], the EC50 is given as > 195 µM (not active).
For `COc1ccc(OC)c(NC(=O)C2CCCN(S(=O)(=O)c3c(C)nn(C)c3C)C2)c1` (stereo not given), the EC50 in data set [5] is > 195 µM (not active).
`Cc1cc(Nc2nc(Cl)c(Cl)cc2Cl)n(-c2ccccc2)n1`: in data set [4], the AC50 is 3.95 µM (active).
Turning to `Cc1ccc(CCNC(=O)CN=C(S)N(Cc2ccccc2)Cc2cccnc2)cc1`, the figures for the EC50 in data set [1] and in data set [2] were 1.28 µM (active) and > 60 µM (not active), respectively.
For the compound `N#C/C(=C(/O)COc1ccccc1)c1nc2ccccc2s1`, the 50% effective concentration (EC50) in data set [3] was 26.7 µM (active); with Streptococcus, > 150 µM (not active); at Streptokinase A, 7.55 µM (active).
Consider `c1cnc2ccc(C(c3nnnn3C3CCCCC3)N3CCN(C4CCCCC4)CC3)cc2c1` (stereo not given), for which the figures for the EC50 in data set [1] and in data set [2] were 8.47 µM (active) and 4.37 µM (active), respectively.
Take `CN(Cc1ccccc1)Cc1c[nH]c2ccccc12`: the EC50 in data set [1] was 0.972 µM (active); in data set [2], > 60 µM (not active).
Take `COc1ccc(-c2csc(N(CCc3ccc(OC)c(OC)c3)C(=O)COc3ccccc3)n2)cc1`: in data set [5], the EC50 was > 195 µM (not active).
Regarding `CC(C)(CNC(=O)c1ccccc1)CNC1=NS(=O)(=O)c2ccccc21`, the EC50 (in data set [3]; in the data set with Streptococcus; on Streptokinase A) was > 150 µM (not active) each time.
Consider `COc1ccc(C(=O)C2CCCN(Cc3sc(N4CCCC4)nc3Cl)C2)c(OC)c1` (stereo not given), for which the results for the EC50 in data set [1] and in data set [2] were 0.927 µM (active) and > 60 µM (not active), respectively.
As for `COc1ccc2nc(N=C(N)N=C(S)Nc3c(C)cccc3C)nc(C)c2c1`, the EC50 in data set [3] is 21.7 µM (active); with Streptococcus it was > 150 µM (not active).
Turning to `CC(C)c1ccc2c(c1)c(SC(C)(C)C)c(CC(C)(C)C(=O)O)n2Cc1ccc(Cl)cc1`, the values for the EC50 (in data set [3]; on Streptokinase A) were 1.07 µM (active) and 1.24 µM (active), respectively.
For `CC(=O)c1cccc(NC(=O)C2CC(=O)N(CCc3ccccc3)C2)c1` (stereo not given), in data set [5], the 50% effective concentration (EC50) is > 195 µM (not active).
On the same count and under the same terms, under `CCCCCSc1nc(C)c(CC(=O)O)c(O)n1` stands > 195 µM (not active).
With `Cc1ccc(NC(=O)N(Cc2cccnc2)Cc2ccco2)cc1C`, the EC50 in data set [1] was 1.39 µM (active); in data set [2], > 60 µM (not active).
In the case of `Cc1cc2c(c(=O)n1Cc1ccc3c(c1)OCO3)C(c1cccnc1)C(C#N)=C(N)O2` (stereo not given), the concentration for a half-maximal effect (EC50) in data set [1] was 1.94 µM (active); in data set [2], > 60 µM (not active).
On the same counts, the results for `CCC(C)Oc1cc(-c2ccnc(Nc3cccc(Cl)c3)n2)ccn1` (stereo not given) are 1.7 µM (active) and 7.53 µM (active).
On the same counts, the results for `Cc1ccc(OCCCCN2CCCCC2)c(Br)c1` are 2.16 µM (active) and > 60 µM (not active).
Regarding `COc1ccc2nc(N=C(N)NC(=S)Nc3c(C)cccc3C)nc(C)c2c1`, at Streptokinase A, the 50% effective concentration (EC50) was 42 µM (inconclusive).
With `COc1ccc(OC)c(N(CC(=O)Nc2ccccc2)S(C)(=O)=O)c1`, the EC50 in data set [5] was > 195 µM (not active).
With `O=C(Nc1cccc(S(=O)(=O)c2cccc(NC(=O)c3ccco3)c2)c1)c1ccco1`, the EC50 in data set [1] is 0.869 µM (active); in data set [2] it was > 60 µM (not active).
As for `COc1cc(CNc2ccc(CNc3nc[nH]n3)cc2)ccc1OCc1ccccc1`, the AC50 in data set [4] was 2.25 µM (active).
Consider `COc1ccc([C@@H]2C[C@@H](c3ccccc3)Oc3c(C)ccc(C(C)C)c32)cc1`, for which the EC50 in data set [5] is > 195 µM (not active).
With `CCCOC(=O)c1ccc(Oc2c(-c3ccc(OCC)cc3O)n[nH]c2C)cc1`, at Streptokinase A, the EC50 is > 150 µM (not active).
With `Cc1ccc(C(C)C)c(OCC(=O)NC2CCN(C)CC2)c1`, the figures for the EC50 in data set [1] and in data set [2] were 1.21 µM (active) and > 60 µM (not active), respectively.
As to `Cc1ccc(OCC(=O)Nc2ccccc2C(=O)N2CCCCC2)cc1`, the EC50 in data set [5] was > 195 µM (not active).
For `Cc1cc(C)cc(N2C(=O)CN(Cc3ccccc3)C2=S)c1`, in data set [5], the EC50 is recorded as > 195 µM (not active).
